Assay results published in patent US20230028880A1, “CD38-BINDING AGENTS AND USES THEREOF” (Biohaven Therapeutics Ltd., priority 2019, published 2023).
“And” between values parts separate entries of the source, which are not always exact repeats. Identical values can stand only once. *1 amine or outer side, *2 acyl side, *3 side chain or, on linkers, in order; H or OH if unused. Bridges are numbered along the chain shown (N, C = ends). Where no end group is shown, it is not given here. [ ]: non-standard residue; d: D form. d(γGlu) = O=C(O)[C@@H](CCC(=O)[*:2])N[*:1]; 12Ado = NCCCCCCCCCCCC(=O)O

Key:
[1] = tested on: Effector cells (ADCC reporter cells) with Daudi cells; assay: ADCC reporter assay: Daudi cells, IVIG and ADCC reporter effector cells (luciferase, RLU); format: cell-based; conditions: IVIG; for EC50: ADCC reporter assay; for Luminescence, ADCC reporter assay: 18 h, duplicate columns
Method: Daudi (ATCC CCL-213) cells were resuspended in Opti-MEM (Thermo Fisher Scientific #31985070), counted (Life Technologies Countless II cell counter) and plated (5,000 cells in 25 uL/well; Corning plates: 3917). Compounds w diluted in DMSO (MP 191418) to 1000× the starting concentration used in the assay into a 96 well polypropylene plate (Corning 3357). They were then serially diluted in ½ log increments to generate 8 concentrations in DMSO (assay dependent). These DMSO stocks were then step diluted 1/250 into Opti-MEM. Step diluted compound range was then added into the polypropylene assay plate 25 uL/well. The human antibody solution (Grifols IVIG Fleogogamma #61953-0005-2) was diluted to 40 ug/mL and added 25 uL/well. Effector cells (ADCC reporter cells—Promega kit: G7018) were added 37,500 in 25 uL/well. The assay was then incubated 18 h at 37° C. Following the induction period, the plate was equilibrated to 25° C. followed the addition of the luciferase substrate (75 uL/well, 1 vial in 10 mL of Bio-Glo assay buffer, Promega kit: G7018). The luminescence was measured (Biotek Synergy H1 microplate reader).

Daudi cells [2] = assay: KILR ADCC killing assay: KILR-transfected Daudi cells with purified NK cells (% dead cells); format: cell-based; conditions: KILR Daudi cells with purified NK cells, duplicate columns
Source text: In some embodiments, CD38-ABT ARMs bind to target cells and antibodies, e.g., human antibodies. In some embodiments, such ternary structures present antibodies to effector cells such as NK cell and bind to, e.g., CD16a receptors. […] Daudi cells were transfected with KILR reporter construct (DiscoverX #97-0002). An attenuated lentivirus was designed to deliver a Moloney Murine Leukemia Virus (MMLV) engineered to drive expression of a housekeeping gene tagged with Enhanced ProLabel (ePL) a beta-Galactosidase (beta-gal) reporter fragment. This construct was designed to remain inside cells. Death leads to the release of the KILR reporter protein into the medium. Detection reagent (DiscoverX #97-0001L) contained the complementing beta-gal reporter fragment enzyme acceptor (EA). The two components combined to generate a chemiluminescent signal.

Daudi cells [3] = assay: Ternary binding assay: recruitment of PE-labeled human IgG1k to Daudi cells (flow cytometry, MFI); format: cell-based; conditions: duplicate columns
Method: Various technologies can be utilized to assess and/or characterize recruitment of antibodies to target cells, e.g., cancer cells. One such assay is a ternary binding assay. An exemplary protocol is described herein. Compounds were diluted in DMSO (MP 191418) to 1000× the starting concentration used in the assay into a 96 well polypropylene plate (Corning 3357). They were then serially diluted in ½ log increments to generate 8-12 concentrations in DMSO (assay dependent). These DMSO stocks were then step diluted 1/100 into PBS (VWR Cat. #20012043). Step diluted compound range was then added into the polypropylene assay plate 1/10 the volume of the assay volume. Daudi (ATCC CCL-213), a non-adherent cell line, were counted and centrifuged and resuspended at a concentration of 100,000 cells per 90 ul in Flow buffer: 1% BSA (American Bio AB01088-00100); 0.5 mM EDTA (VWR 45001-122); PBS (VWR Cat. #20012043) with 11.1 ug/mL human IgG1k Phycoerythrin labeled (SouthernBiotech #0151K-09 PE). The cells were then added into the polypropylene plate with the step diluted compounds and incubated at 37° C. for 30 min. At the end of the incubation, the cells were centrifuged and washed 2× with How buffer containing 0.5% Tween 20 (BP337-500). Samples were analyzed on a BD FacsCelesta. Mean fluorescence was analyzed using Graphpad Prism and curves were fit using log(inhibitor) vs. response—Variable slope (four parameters).

[4] = target: CD38 on Daudi cells (human) (UniProt P28907); assay: ternary binding, flow cytometry: Daudi cells + PE human IgG1k

Row | Molecule | EC50 [1] | Luminescence, ADCC reporter assay ([1]; compound 1 nM) | Luminescence, ADCC reporter assay ([1]; compound 3 nM) | Luminescence, ADCC reporter assay ([1]; compound 10 nM) | Luminescence, ADCC reporter assay ([1]; compound 30 nM) | Luminescence, ADCC reporter assay ([1]; compound 100 nM) | Luminescence, ADCC reporter assay ([1]; compound 300 nM) | Luminescence, ADCC reporter assay ([1]; compound 1000 nM) | MFI, recruitment of PE-labeled human IgG1k to Daudi cells (Daudi cells [3]; compound 0.03 nM) | MFI, recruitment of PE-labeled human IgG1k to Daudi cells (Daudi cells [3]; compound 0.1 nM) | MFI, recruitment of PE-labeled human IgG1k to Daudi cells (Daudi cells [3]; compound 0.3 nM) | MFI, recruitment of PE-labeled human IgG1k to Daudi cells (Daudi cells [3]; compound 1 nM) | MFI, recruitment of PE-labeled human IgG1k to Daudi cells (Daudi cells [3]; compound 3 nM) | MFI, recruitment of PE-labeled human IgG1k to Daudi cells (Daudi cells [3]; compound 10 nM) | MFI, recruitment of PE-labeled human IgG1k to Daudi cells (Daudi cells [3]; compound 30 nM) | MFI, recruitment of PE-labeled human IgG1k to Daudi cells (Daudi cells [3]; compound 100 nM) | MFI, recruitment of PE-labeled human IgG1k to Daudi cells (Daudi cells [3]; compound 300 nM) | MFI, recruitment of PE-labeled human IgG1k to Daudi cells (Daudi cells [3]; compound 1000 nM) | MFI, recruitment of PE-labeled human IgG1k to Daudi cells (Daudi cells [3]; compound 3000 nM) | Luminescence, ADCC reporter assay ([1]; compound 0.3 nM) | also measured
1 | CCCCC[C@@H]1NC(=O)[C@H](CCCNC(=N)N)NC(=O)[C@H](C)NC(=O)CSC[C@@H](C(=O)NCCCC(=O)N[C@@H](CC(=O)O)C(=O)N[C@H]2CSSC[C@@H](C(=O)N[C@H](C(N)=O)[C@@H](C)O)NC(=O)[C@H](Cc3c[nH]c4ccccc34)NC(=O)[C@H](C(C)C)NC(=O)[C@H](CC(C)C)NC(=O)[C@H](CCC(=O)O)NC(=O)CNC(=O)[C@H](CC(C)C)NC(=O)[C@H](Cc3c[nH]cn3)NC(=O)[C@H](Cc3c[nH]c4ccccc34)NC(=O)[C@H](C)NC2=O)NC(=O)[C@H](CC(=O)O)NC(=O)[C@H](CCCCC)NC(=O)[C@H](Cc2ccc(-c3ccccc3)cc2)NC(=O)[C@H](CC(C)C)NC(=O)[C@H](C(C)C)NC(=O)CNC(=O)[C@H](CC(=O)O)NC(=O)[C@H](Cc2c[nH]cn2)NC(=O)[C@H](Cc2ccc(O)cc2)NC1=O [I-30] | 12 nM | 4174 RLU and 4217 RLU | 4269 RLU and 4452 RLU | 11442 RLU and 11535 RLU | 17189 RLU and 17066 RLU | 20600 RLU and 19749 RLU | 22074 RLU and 21976 RLU | 22085 RLU and 21589 RLU |  |  |  |  |  |  |  |  |  |  |  |  | Luminescence, ADCC reporter assay ([1]; compound 3000 nM): 19456 RLU and 17760 RLU; % dead cells, KILR ADCC killing assay (Daudi cells [2]; compound 1 nM): 14.3% and 14.7%; % dead cells, KILR ADCC killing assay (Daudi cells [2]; compound 3 nM): 14.7% and 15.7%; % dead cells, KILR ADCC killing assay (Daudi cells [2]; compound 10 nM): 14.1%; % dead cells, KILR ADCC killing assay (Daudi cells [2]; compound 100 nM): 17.1% and 18.1%; % dead cells, KILR ADCC killing assay (Daudi cells [2]; compound 300 nM): 19% and 20.6%; % dead cells, KILR ADCC killing assay (Daudi cells [2]; compound 1000 nM): 19.2% and 20%
2 | CCCCC[C@@H]1NC(=O)[C@H](CCCNC(=N)N)NC(=O)[C@H](C)NC(=O)CSC[C@@H](C(=O)NCCOCCOCCOCCOCCOCCOCCOCCOCCC(=O)NCCOCCOCCOCCOCCOCCOCCOCCOCCC(=O)N[C@@H](CC(=O)O)C(=O)N[C@H]2CSSC[C@@H](C(=O)N[C@H](C(=O)O)[C@@H](C)O)NC(=O)[C@H](Cc3c[nH]c4ccccc34)NC(=O)[C@H](C(C)C)NC(=O)[C@H](CC(C)C)NC(=O)[C@H](CCC(=O)O)NC(=O)CNC(=O)[C@H](CC(C)C)NC(=O)[C@H](Cc3c[nH]cn3)NC(=O)[C@H](Cc3c[nH]c4ccccc34)NC(=O)[C@H](C)NC2=O)NC(=O)[C@H](CC(=O)O)NC(=O)[C@H](CCCCC)NC(=O)[C@H](Cc2ccc(-c3ccccc3)cc2)NC(=O)[C@H](CC(C)C)NC(=O)[C@H](C(C)C)NC(=O)[C@H](CCC(N)=O)NC(=O)[C@H](CC(=O)O)NC(=O)[C@H](Cc2c[nH]cn2)NC(=O)[C@H](Cc2ccc(O)cc2)NC1=O [I-41] |  | 6793 RLU and 6656 RLU | 15011 RLU and 15516 RLU | 26140 RLU and 28413 RLU | 35410 RLU and 36310 RLU | 40904 RLU and 39344 RLU | 38409 RLU and 39619 RLU | 29516 RLU and 26828 RLU | 4489 and 2739 | 7612 and 4790 | 3076 and 2422 | 5751 and 3841 | 5283 and 6064 | 9033 and 5065 | 10036 and 10734 | 19188 and 14043 | 23096 and 16482 | 13982 and 11893 | 18339 and 21903 | 4814 RLU and 4964 RLU | 
3 | CCCCC[C@@H]1NC(=O)[C@H](CCCNC(=N)N)NC(=O)[C@H](C)NC(=O)CSC[C@@H](C(=O)NCCOCCOCCOCCOCCOCCOCCOCCOCCC(=O)NCCOCCOCCOCCOCCOCCOCCOCCOCCC(=O)N[C@@H](CC(=O)O)C(=O)N[C@H]2CSSC[C@@H](C(=O)N[C@H](C(=O)O)[C@@H](C)O)NC(=O)[C@H](Cc3c[nH]c4ccccc34)NC(=O)[C@H](C(C)C)NC(=O)[C@H](CC(C)C)NC(=O)[C@H](CCC(=O)O)NC(=O)CNC(=O)[C@H](CC(C)C)NC(=O)[C@H](Cc3c[nH]cn3)NC(=O)[C@H](Cc3c[nH]c4ccccc34)NC(=O)[C@H](C)NC2=O)NC(=O)[C@H](CC(=O)O)NC(=O)[C@H](CCCCC)NC(=O)[C@H](Cc2ccc(-c3ccccc3)cc2)NC(=O)[C@H](CC(C)C)NC(=O)[C@H](C(C)C)NC(=O)[C@H](CC(N)=O)NC(=O)[C@H](CC(=O)O)NC(=O)[C@H](Cc2c[nH]cn2)NC(=O)[C@H](Cc2ccc(O)cc2)NC1=O [I-42] | 1.4 nM | 13795 RLU and 13686 RLU | 20721 RLU and 20652 RLU | 32317 RLU and 32373 RLU | 36909 RLU and 40202 RLU | 40344 RLU and 39296 RLU | 39826 RLU and 37835 RLU | 27516 RLU and 28425 RLU | 7077 and 5990 | 5737 and 4704 | 3879 and 4284 | 4981 and 6900 | 6000 and 5101 | 6189 and 11302 | 9700 and 15077 | 16690 and 17157 | 14190 and 18622 | 20476 and 15023 | 13519 and 15909 | 4468 RLU and 4661 RLU | 
4 | [d(γGlu)][d(γGlu)][dE](12Ado)[d(γGlu)][d(γGlu)]GGDCAWHLGELVWCT (peptide, part only; not given: PEG8 unit, part only, disulfide 9-19; not fully specified (N-terminus); also: N-terminal PEG8 joins a further peptide chain not given here) [I-28] |  |  |  |  |  |  |  |  |  |  |  |  |  |  |  |  |  |  |  |  | MFI at 1 nM [4]: 216 and 385; MFI at 3 nM [4]: 400 and 751; MFI at 10 nM [4]: 1970 and 1940; MFI at 30 nM [4]: 4030 and 4740; MFI at 100 nM [4]: 5110 and 5380; MFI at 300 nM [4]: 6240 and 5320; MFI at 1000 nM [4]: 5150 and 5380; MFI at 3000 nM [4]: 5220 and 5330
